Measured values reported in article PMC3504484 (Journal of Medicinal Chemistry, 2012).
Read-outs that look alike come from different tables or passages of the source.

Tests used:
5-HT3A receptor = target: T1, 5-HT3A receptor (Homo sapiens, UniProt P46098); assay type: binding
T1 sequence (P46098 24-478): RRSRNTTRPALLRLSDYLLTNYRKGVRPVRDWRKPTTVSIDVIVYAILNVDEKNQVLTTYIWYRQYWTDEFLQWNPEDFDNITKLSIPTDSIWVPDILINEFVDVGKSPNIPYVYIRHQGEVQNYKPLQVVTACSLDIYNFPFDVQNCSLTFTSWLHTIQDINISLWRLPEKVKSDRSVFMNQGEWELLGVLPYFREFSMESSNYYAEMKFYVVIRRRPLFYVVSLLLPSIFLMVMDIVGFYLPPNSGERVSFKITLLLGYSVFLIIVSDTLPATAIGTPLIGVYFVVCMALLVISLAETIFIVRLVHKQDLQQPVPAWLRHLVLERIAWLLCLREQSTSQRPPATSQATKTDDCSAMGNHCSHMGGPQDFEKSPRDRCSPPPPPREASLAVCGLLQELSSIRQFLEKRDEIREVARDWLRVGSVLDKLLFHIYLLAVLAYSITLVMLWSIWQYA

Glycine = assay: single point radioligand competition binding; set-up: species or system rat; conditions: 0.1 µM
[1] = compared to parent isoquinoline compound 52
[2] = compared to quinoline compound 51

CN1CCN(c2cc3ccccc3c(N)n2)CC1 [Compound 39, 3-(4-Methylpiperazin-1-yl)isoquinolin-1-amine]
fold lower affinity (5-HT3A receptor; [1]): 140 fold

CN1CCN(c2nc(N)c3cc(Cl)ccc3n2)CC1 [Compound 12]
fold reduction in affinity (5-HT3A receptor): ~10 fold

CN1CCN(c2nc(N)c3ccccc3n2)CC1 [Compound 22]
selectivity for the 5-HT3A receptor over the H4R (5-HT3A receptor; H4R affinity from ref 35): ~40 000 fold
% inhibition of control specific binding ± s.e.m. (Glycine): <15%

CNc1nc(N2CCN(C)CC2)nc2ccccc12 [Compound 21, N-Methyl-2-(4-methylpiperazin-1-yl)quinazolin-4-amine]
fold reduction in affinity (5-HT3A receptor; compared to compound 6): ~5 fold

CNc1nc(N2CCN(C)CC2)cc2ccccc12 [Compound 40, N-Methyl-3-(4-methylpiperazin-1-yl)isoquinolin-1-amine]
fold lower affinity (5-HT3A receptor; [1]): ~5 fold

CN1CCN(c2ncc3cc(Cl)ccc3n2)CC1 [Compound 11, 6-Chloro-2-(4-methylpiperazin-1-yl)quinazoline]
fold reduction in affinity (5-HT3A receptor; compared to compound 6): ~10 fold

CN1CCN(c2cnc3ccccc3n2)CC1 [Compound 50]
fold lower affinity (5-HT3A receptor; compared to compounds 49, 51 and 52): 3–10 fold

CNc1cc(N2CCN(C)CC2)nc2ccccc12 [Compound 31, N-Methyl-2-(4-methylpiperazin-1-yl)quinolin-4-amine]
fold drop in affinity (5-HT3A receptor; [2]): ~30 fold

CN1CCN(c2cnc3ccccc3c2)CC1 [Compound 35, 3-(4-Methylpiperazin-1-yl)quinoline]
fold drop in affinity (5-HT3A receptor; compared to (iso)quinolines 51 and 52): > 250 fold

CNc1nc(N2CCN(C)CC2)nc2ccc(Cl)cc12 [Compound 6]
fold increase in affinity (5-HT3A receptor; compared to compound 1): 16 fold

CN1CCN(c2nc(O)c3cc(Cl)ccc3n2)CC1 [Compound 48]
fold reduction in affinity (5-HT3A receptor): ~500 fold

CN1CCN(c2nc(N(C)C)c3cc(Cl)ccc3n2)CC1 [Compound 13]
fold reduction in affinity (5-HT3A receptor; compared to compound 6): ~10 fold

CN1CCN(c2ccc3c(N)cccc3n2)CC1 [Compound 46, 2-(4-Methylpiperazin-1-yl)quinolin-5-amine]
fold drop in affinity (5-HT3A receptor; compared to compound 30): ~100 fold
fold drop in affinity (5-HT3A receptor; [2]): ~1000 fold
